The values that follow come from PubChem BioAssay (NCI).

Some test systems named below: NCI/ADR-RES ovarian; MDA-MB-231 breast; COLO 205 colon; SF-268 CNS; HOP-62 NSCLC; ACHN renal; OVCAR-4 ovarian; RPMI-8226 leukemia; OVCAR-5 ovarian; SNB-19 CNS; MDA-MB-435; DU-145 prostate; SF-539 CNS.
What all share (assay): NCI-60 cell line screen, 48 h

The structures appear in SMILES notation. “And” between values parts separate entries of the source, which are not always exact repeats. Equal values may be shown once.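 48-hour exposure; five concentrations; linearly interpolated endpoints. The concentration for 50% growth inhibition is given as GI50. TGI marks complete inhibition of growth.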 Starred links: 1 amine or outer side, 2 acyl side, 3 side chain; linkers in the order of their positions; H or OH if unused. Positions of bridges follow the written chain, without caps; N, C: chain ends. Non-standard residues stand in square brackets, D forms with d. Residues, ends and D or L forms follow the SMILES beside them. Chains are numbered I, II in the order given. Actinocin(9to1) = Cc1c2oc3c(C)ccc(C(=O)[*:1])c3nc-2c(C(=O)[*:2])c(N)c1=O; NMeY = CN[CH](Cc1ccc(O)cc1)C(=O)O; Sar = CNCC(=O)O

Regarding `COc1cc(OC)c2nc(C)c(CCCl)c(Cl)c2c1`, the TGI in the assay on NCI/ADR-RES ovarian, in the assay on MDA-MB-231 breast, with COLO 205 colon, in the assay on SF-268 CNS, in the assay with HOP-62 NSCLC and in the assay with ACHN renal was > 100 µM throughout. Also, the TGI in the assay on OVCAR-4 ovarian, in the assay with RPMI-8226 leukemia, with OVCAR-5 ovarian, with SNB-19 CNS, in the assay with MDA-MB-435 and in the assay with DU-145 prostate was > 100 µM in each case. In addition, the TGI in the assay on SF-539 CNS was > 100 µM.
For the molecule `COC(=O)/C=C(\C(=O)OC)C1C(=O)Oc2c(C)c(=O)c3ccccc3n21` (stereo unspecified), the TGI with NCI/ADR-RES ovarian, in the assay on MDA-MB-231 breast, in the assay on COLO 205 colon, in the assay with SF-268 CNS, with HOP-62 NSCLC and in the assay on OVCAR-4 ovarian was > 100 µM in each case. The TGI in the assay on RPMI-8226 leukemia, with SNB-19 CNS, in the assay with MDA-MB-435, in the assay on DU-145 prostate and in the assay with SF-539 CNS was > 100 µM throughout.
For `CCOC(=O)CCC(NC(=O)Cc1ccc(Nc2nc3cc(F)c(F)cc3nc2C(=O)OCC)cc1)C(=O)OCC` (stereo unspecified), the TGI in the assay on NCI/ADR-RES ovarian, in the assay with MDA-MB-231 breast, in the assay with COLO 205 colon, in the assay on SF-268 CNS, in the assay with HOP-62 NSCLC and in the assay on ACHN renal was > 100 µM each time. In addition, the TGI with OVCAR-4 ovarian, in the assay with OVCAR-5 ovarian, with SNB-19 CNS, in the assay on MDA-MB-435, in the assay with DU-145 prostate and with SF-539 CNS was > 100 µM each time.
On to `CCOC1(OCC)C2C=CC1C(COS(=O)(=O)c1ccc(C)cc1)C2COS(=O)(=O)c1ccc(C)cc1` (stereo unspecified), for which the TGI in the assay on NCI/ADR-RES ovarian was > 100 µM; in the assay on MDA-MB-231 breast, 69.5 µM; in the assay on COLO 205 colon, 50.7 µM; with SF-268 CNS it was > 100 µM; in the assay on HOP-62 NSCLC, > 100 µM; in the assay with ACHN renal, > 100 µM. For the same molecule, the TGI is 79.2 µM in the assay on OVCAR-4 ovarian; > 100 µM with OVCAR-5 ovarian; > 100 µM in the assay on SNB-19 CNS; > 100 µM with MDA-MB-435; > 100 µM with DU-145 prostate; > 100 µM in the assay with SF-539 CNS.
As for `Cc1ccc2c(c1)C(=S)N1CSCC1c1nncn1-2` (stereo unspecified), the TGI in the assay with NCI/ADR-RES ovarian, in the assay on MDA-MB-231 breast, in the assay with COLO 205 colon, with SF-268 CNS, in the assay on HOP-62 NSCLC and in the assay with ACHN renal was > 100 µM throughout. Further, the TGI in the assay on OVCAR-4 ovarian, in the assay on RPMI-8226 leukemia, in the assay on OVCAR-5 ovarian, with SNB-19 CNS, with MDA-MB-435 and with DU-145 prostate was > 100 µM in each case.
On to `CC1(C)[C@@H](Cn2ccc(=O)[nH]c2=O)CC[C@@]1(C)CO`, for which the TGI with NCI/ADR-RES ovarian, with MDA-MB-231 breast, with COLO 205 colon, in the assay with SF-268 CNS, in the assay on HOP-62 NSCLC and in the assay with ACHN renal was > 100 µM throughout. The TGI with OVCAR-4 ovarian, in the assay on OVCAR-5 ovarian, with SNB-19 CNS, with MDA-MB-435 and with DU-145 prostate was > 100 µM throughout.
With `COC(=O)c1c(O)ccc2c1c1c(n2Cc2cc(OC)cc(OC)c2)C(=O)c2ccccc2C1`, the TGI is 63.1 µM in the assay on NCI/ADR-RES ovarian; 91.6 µM in the assay with MDA-MB-231 breast; 26 µM in the assay with COLO 205 colon; > 100 µM with SF-268 CNS; > 100 µM with HOP-62 NSCLC; 44.8 µM with OVCAR-4 ovarian. The TGI with RPMI-8226 leukemia is 36.2 µM; with OVCAR-5 ovarian it was 56.1 µM; in the assay on SNB-19 CNS, > 100 µM; in the assay with MDA-MB-435 it was 61.7 µM; in the assay with DU-145 prostate, > 100 µM; in the assay on SF-539 CNS, > 100 µM.
In the case of `CN1CCc2c([nH]c3ccccc23)C1`, the TGI in the assay with NCI/ADR-RES ovarian, in the assay on MDA-MB-231 breast, with COLO 205 colon, with SF-268 CNS, in the assay on HOP-62 NSCLC and in the assay on ACHN renal was > 100 µM in each case. For the same molecule, the TGI in the assay on OVCAR-4 ovarian, in the assay with RPMI-8226 leukemia, with OVCAR-5 ovarian, in the assay with SNB-19 CNS, with MDA-MB-435 and with DU-145 prostate was > 100 µM throughout.
Take `O=c1[nH]nnc2c1sc1ncccc12`: the TGI with NCI/ADR-RES ovarian, in the assay on MDA-MB-231 breast, in the assay on COLO 205 colon, in the assay with SF-268 CNS, in the assay with HOP-62 NSCLC and with ACHN renal was > 100 µM each time. The TGI with OVCAR-4 ovarian, in the assay with OVCAR-5 ovarian, in the assay with SNB-19 CNS, in the assay with MDA-MB-435, in the assay on DU-145 prostate and with SF-539 CNS was > 100 µM in each case.
Consider `CCO/C(O)=C(/C(=N)N1CCOCC1)C(=O)Nc1ccc(F)cc1`, for which the TGI with NCI/ADR-RES ovarian, in the assay on MDA-MB-231 breast, in the assay on COLO 205 colon, in the assay with SF-268 CNS, in the assay on HOP-62 NSCLC and in the assay with ACHN renal was > 100 µM each time. For the same molecule, the TGI in the assay on OVCAR-4 ovarian, in the assay on RPMI-8226 leukemia, in the assay with OVCAR-5 ovarian, with SNB-19 CNS, with MDA-MB-435 and in the assay on DU-145 prostate was > 100 µM each time.
Consider `CCOC(=O)Nc1[nH]cc(-c2ccccc2)c1C#N`, for which the TGI with NCI/ADR-RES ovarian, in the assay with MDA-MB-231 breast, with COLO 205 colon, in the assay with SF-268 CNS, in the assay on HOP-62 NSCLC and with ACHN renal was > 100 µM throughout. The TGI in the assay on OVCAR-4 ovarian, with RPMI-8226 leukemia, in the assay on OVCAR-5 ovarian, in the assay on SNB-19 CNS, in the assay on MDA-MB-435 and in the assay with DU-145 prostate was > 100 µM in each case.
Consider `CC(=O)Nc1ccc(N=Nc2c(O)c(S(=O)(=O)O)cc3cc(S(=O)(=O)O)ccc23)cc1`, for which the TGI with NCI/ADR-RES ovarian, in the assay with MDA-MB-231 breast, in the assay on COLO 205 colon, in the assay with SF-268 CNS, in the assay on HOP-62 NSCLC and with ACHN renal was > 100 µM throughout. Moreover, the TGI in the assay on OVCAR-4 ovarian, in the assay on RPMI-8226 leukemia, in the assay on OVCAR-5 ovarian, in the assay on SNB-19 CNS, in the assay with MDA-MB-435 and with DU-145 prostate was > 100 µM each time.
Regarding `CN=C(n1ccnc1)n1ccnc1`, the TGI with NCI/ADR-RES ovarian, with MDA-MB-231 breast, with COLO 205 colon, in the assay with SF-268 CNS, in the assay with OVCAR-4 ovarian and in the assay on RPMI-8226 leukemia was > 100 µM each time. In addition, the TGI with OVCAR-5 ovarian, with SNB-19 CNS, in the assay with MDA-MB-435, with DU-145 prostate and in the assay with SF-539 CNS was > 100 µM each time.
In the case of `CC(=O)Nc1sc(Br)cc1S(=O)(=O)c1ccc(Cl)cc1`, the TGI in the assay on NCI/ADR-RES ovarian is 52.3 µM; in the assay with MDA-MB-231 breast, > 100 µM; in the assay with SF-268 CNS, > 100 µM; in the assay with ACHN renal, > 100 µM; in the assay with OVCAR-4 ovarian it was 64.5 µM; in the assay on RPMI-8226 leukemia, > 100 µM. Also, the TGI in the assay with OVCAR-5 ovarian is > 100 µM; with SNB-19 CNS, > 100 µM; in the assay with MDA-MB-435, > 100 µM; in the assay on DU-145 prostate, > 100 µM; in the assay on SF-539 CNS, 40.6 µM.
Regarding `CN(CCSCCN(C)C(=O)OC(C)(C)C)C(=O)OC(C)(C)C`, the TGI in the assay with NCI/ADR-RES ovarian, in the assay with MDA-MB-231 breast, in the assay on COLO 205 colon, in the assay on SF-268 CNS, in the assay on HOP-62 NSCLC and in the assay on ACHN renal was > 100 µM in each case. Further, the TGI in the assay on OVCAR-4 ovarian, with OVCAR-5 ovarian, in the assay on SNB-19 CNS, in the assay with MDA-MB-435, in the assay on DU-145 prostate and in the assay with SF-539 CNS was > 100 µM throughout.
Take `Cc1c2oc3c(C)ccc(C(=O)NC4C(=O)NC(C(C)C)C(=O)N5CCCC5C(=O)N(C)CC(=O)N(C)C(Cc5ccc(O)cc5)C(=O)OC4C)c3nc-2c(C(=O)NC2C(=O)NC(C(C)C)C(=O)N3CCCC3C(=O)N(C)CC(=O)N(C)C(Cc3ccc(O)cc3)C(=O)OC2C)c(N)c1=O` (stereo unspecified) (I: TVP[Sar][NMeY] / II: TVP[Sar][NMeY]; ester I:1-I:C, II:1-II:C; linker I:N-II:N via Actinocin(9to1); configuration not given here): the GI50 is 0.494 µM in the assay on NCI/ADR-RES ovarian; 0.136 µM and 0.0318 µM with MDA-MB-231 breast; 0.0175 µM and 0.00568 µM in the assay with COLO 205 colon; 0.199 µM and 0.0508 µM in the assay with OVCAR-5 ovarian; 0.00797 µM and 0.00332 µM with SNB-19 CNS; 0.0459 µM and 0.0099 µM in the assay on MDA-MB-435. Also, the GI50 in the assay with DU-145 prostate was 0.0687 µM and 0.0302 µM. The TGI in the assay with NCI/ADR-RES ovarian is > 1 µM; in the assay with MDA-MB-231 breast, > 1 µM; in the assay with COLO 205 colon, 0.216 µM and 0.0889 µM; in the assay with SF-268 CNS it was > 1 µM; in the assay with ACHN renal, > 1 µM; in the assay on OVCAR-4 ovarian, > 0.301 µM. The TGI in the assay with RPMI-8226 leukemia was 0.926 µM and > 1 µM; with OVCAR-5 ovarian it was 0.997 µM and > 0.443 µM; in the assay with SNB-19 CNS, > 1 µM; with MDA-MB-435 it was 0.259 µM and 0.147 µM; with DU-145 prostate, > 1 µM; in the assay with SF-539 CNS it was 0.224 µM and 0.152 µM.
